Source: patent US11370769B2, “TRPC5 inhibitors and methods of using same” (BOARD OF REGENTS OF THE UNIVERSITY OF NEBRASKA, priority 2017, dated 2022)

Molecular target: T1, TRPC6 (Homo sapiens, UniProt Q9Y210)
T1 construct: expressed in transfected cells; host or cells: HEK293
T1 sequence (Q9Y210 1-931): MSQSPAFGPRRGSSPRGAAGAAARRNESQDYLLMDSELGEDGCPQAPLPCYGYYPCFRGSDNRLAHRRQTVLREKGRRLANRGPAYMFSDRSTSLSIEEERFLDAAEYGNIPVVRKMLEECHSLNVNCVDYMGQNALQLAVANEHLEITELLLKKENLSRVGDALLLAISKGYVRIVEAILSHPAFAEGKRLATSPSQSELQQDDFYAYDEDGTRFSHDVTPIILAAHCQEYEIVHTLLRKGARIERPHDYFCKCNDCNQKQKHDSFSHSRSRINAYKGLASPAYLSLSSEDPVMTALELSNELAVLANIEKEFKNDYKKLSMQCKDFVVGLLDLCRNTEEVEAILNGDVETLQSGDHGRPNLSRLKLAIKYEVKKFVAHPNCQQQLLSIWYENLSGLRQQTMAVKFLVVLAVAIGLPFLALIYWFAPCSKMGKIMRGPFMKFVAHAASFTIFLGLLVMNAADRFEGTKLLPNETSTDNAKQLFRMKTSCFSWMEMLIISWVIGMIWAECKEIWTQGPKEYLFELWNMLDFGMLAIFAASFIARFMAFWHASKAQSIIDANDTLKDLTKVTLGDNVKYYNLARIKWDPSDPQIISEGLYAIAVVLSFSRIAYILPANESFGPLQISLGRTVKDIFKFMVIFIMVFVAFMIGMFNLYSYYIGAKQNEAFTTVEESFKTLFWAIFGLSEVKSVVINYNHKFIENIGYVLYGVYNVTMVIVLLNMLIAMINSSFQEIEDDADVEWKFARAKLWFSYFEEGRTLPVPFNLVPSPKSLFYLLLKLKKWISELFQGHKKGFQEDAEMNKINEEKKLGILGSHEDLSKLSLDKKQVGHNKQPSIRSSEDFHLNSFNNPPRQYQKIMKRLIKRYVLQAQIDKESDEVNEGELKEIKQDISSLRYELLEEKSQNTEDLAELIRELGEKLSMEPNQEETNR
Assay: HEK293 whole-cell patch clamp recording, TRPC6 inhibition assay
Type: cell-based
Conditions: 30 μM, HEK cells expressing TRPC6, OAG 30 μM
Protocol: TRPC4, TRPC5, and TRPC6 inhibition assay: HEK293 whole-cell recordings Whole-cell patch clamp recording was performed 16 h after transfection. The bath solution contained (in mM): 140 NaCl, 5 KCl, 10 HEPES, 2 MgCl2, 2 CaCl2, 10 glucose with pH7.4 adjusted with NaOH. The intracellular solution contained (in mM): 140 KCl, 5 EGTA, 10 HEPES, 2 MgCl2 with pH7.4 adjusted with KOH. The patch pipettes were made using a two-step-protocol (P-97, Sutter Instrument). The pipette resistance was maintained between 4 to 8 MΩ. Once the whole-cell configuration was achieved, cells were clamped at a holding potential of −60 mV, and given a 50 ms ramp stimulation from −100 mV to +100 mV in every 5 s. All currents were filtered at 2 KHz (Axopatch 200B amplifier, Axon Instruments, Union City, Calif.) and digitized at 10 KHz for whole-cell recordings using Axon pCLAMP 10.4. Data were then analyzed using Clampfit 10.4 (Molecular Devices).
HEK293 cell culture and transfection: Transfection of HEK293 cells was carried out using Plus reagent (Invitrogen) and Lipofectamine (Invitrogen) according to standard protocols. For heterologous expression of TRP channels in HEK293 cells, 1 μg of TRPC5-GFP, TRPC6-GFP or TRPC4-GFP plasmids were used to transfect HEK293 cells in a 3.5 cm petri dish where cells were allowed to grow to 80% confluence. Electrophysiology was carried out after 16 h incubation.

c1ccc(Cn2c(NCc3ccco3)nc3ccccc32)cc1 [AC1903]
block of OAG-induced TRPC6 current: failed to block
